Source: ChEMBL document CHEMBL1137799, “Bisbenzylisoquinoline alkaloids” (J Nat Prod, 1991)
Converted amounts (≈) assume the structure as drawn.

Legend:
[1] = molecular target: Dual specificity calcium/calmodulin-dependent 3',5'-cyclic nucleotide phosphodiesterase 1A (Homo sapiens, UniProt P54750); experiment: Inhibition of calmodulin-dependent phosphodiesterase
[2] = Inhibition of calmodulin-stimulated Ca2+/Mg2+ ATPase activity in human erythrocyte membrane; assay type: cell membranes
[3] = Drug absorption in digestive tract of Wistar rat at 5 mg/kg, iv and po; assay type: ADME, organism-based; design: dose 5 mg/kg, route oral; conditions: in vivo, read-out: Drug uptake
[4] = Protein binding in Wistar rat serum at 5 mg/kg, iv and po; assay type: ADME, organism-based; design: dose 5 mg/kg, route oral; conditions: read-out: PB (converted)
[5] = Half life in Wistar rat at 5 mg/kg, iv and po; assay type: ADME, organism-based; design: dose 5 mg/kg, route oral; conditions: in vivo
[6] = Half life in Wistar rat testis at 5 mg/kg, iv and po; assay type: ADME, organism-based; design: dose 5 mg/kg, route oral
[7] = system: Plasmodium falciparum; experiment: Antimalarial activity against Plasmodium falciparum; assay type: functional, organism-based
[8] = system: Homo sapiens; experiment: Increase in N-methyl-curine-induced neuromuscular blocking in patient during endotracheal intubation administered through inhalation; assay type: functional, organism-based
[9] = Inhibition of formyl-methionyl-leucyl-phenylalanine induced superoxide generation in PMNC; assay type: functional
[10] = molecular target: Muscarinic acetylcholine receptor; experiment: Displacement of [3H]QNB from rat brain muscarinic receptor
[11] = Inhibition of phorbol myristate acetate-induced superoxide anion production in mouse peritoneal exudate cells at 5 ug/ml; assay type: functional
[12] = Inhibition of phorbol myristate acetate-induced superoxide anion production in mouse peritoneal exudate cells at 50 ug/ml; assay type: functional
[13] = species on record: Mus musculus; experiment: Inhibition of 12-O-tetradecanoylphorbol-13-acetate-induced carcinogenic activity in mouse ear at 2 mg, applied locally; assay type: functional
[14] = Toxicity in ip dosed rat; assay type: organism-based; conditions: in vivo

Chain of Dual specificity calcium/calmodulin-dependent 3',5'-cyclic nucleotide phosphodiesterase 1A (P54750 whole entry): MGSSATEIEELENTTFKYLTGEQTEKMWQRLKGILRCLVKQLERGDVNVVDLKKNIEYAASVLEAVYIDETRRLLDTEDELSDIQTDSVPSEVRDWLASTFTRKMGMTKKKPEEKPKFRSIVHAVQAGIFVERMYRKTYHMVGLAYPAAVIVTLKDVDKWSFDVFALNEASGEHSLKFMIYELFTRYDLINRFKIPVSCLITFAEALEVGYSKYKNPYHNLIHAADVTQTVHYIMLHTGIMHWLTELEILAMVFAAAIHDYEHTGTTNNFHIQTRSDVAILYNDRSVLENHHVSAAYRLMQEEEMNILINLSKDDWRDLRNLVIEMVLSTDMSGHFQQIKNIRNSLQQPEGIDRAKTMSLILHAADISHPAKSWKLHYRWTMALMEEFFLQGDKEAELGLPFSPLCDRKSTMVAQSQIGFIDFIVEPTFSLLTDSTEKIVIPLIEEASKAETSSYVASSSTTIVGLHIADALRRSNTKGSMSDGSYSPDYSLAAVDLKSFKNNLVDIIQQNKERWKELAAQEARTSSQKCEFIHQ

CCOCCCCOc1ccc2cc1Oc1ccc(cc1)C[C@H]1c3cc(c(OC)cc3CCN1C)Oc1c(OC)c(OC)cc3c1[C@@H](C2)N(C)CC3
IC50 [1]: 0.35 µM | IC50 [2]: 0.35 µM

COc1ccc2cc1Oc1ccc(cc1)C[C@H]1c3c(cc4c(c3Oc3cc5c(cc3OC)CCN(C)[C@@H]5C2)O[14CH2]O4)CCN1C
Fa [3]: 70% | fraction unbound [4]: 0.26 | half-life [5]: 8 days | half-life [6]: 36 days

COc1ccc2cc1Oc1ccc(cc1)CC1NCCc3cc(O)c4c(c31)Oc1c(OC)cc3c(c1O4)[C@H](C2)N(C)CC3 (stereo partly specified)
IC50 [7]: 1.1 µg/mL (≈ 1.9 µM)

FC(F)OC(F)(F)C(F)Cl (stereo unspecified)
inhibition [8]: Dose-dependent effect

COc1cc2c3cc1Oc1c(OC)c(OC)cc4c1[C@H](Cc1ccc(cc1)Oc1cc(ccc1O)C[C@H]3N(C)CC2)N(C)CC4 [AROMOLINE]
IC50 [7]: 0.67 µg/mL (≈ 1.1 µM) | inhibition (INH) [9]: 63.1%

COc1cc2c3cc1Oc1c(OC)c(OC)cc4c1[C@@H](Cc1ccc(O)c(c1)Oc1ccc(cc1)C[C@@H]3N(C)CC2)N(C)CC4 [BERBAMINE]
IC50 [1]: 22 µM | Ki [10]: 1.9 ×10⁻⁷ M | inhibition (INH) [9]: 56.4% | IC50 [2]: 60 µM

COc1cc2c3cc1Oc1c4c(cc5c1[C@H](Cc1ccc(cc1)Oc1cc(ccc1O)C[C@H]3N(C)CC2)N(C)CC5)OCO4 [CEPHARANOLINE]
inhibition (INH) [9]: 56%

COc1ccc2cc1Oc1ccc(cc1)C[C@H]1c3c(cc4c(c3Oc3cc5c(cc3OC)CCN(C)[C@@H]5C2)OCO4)CCN1C [CEPHARANTHINE]
inhibition at 5 µg/mL [11]: 34% | inhibition at 50 µg/mL [12]: 85% | inhibition (INH) [13]: 78%

COc1cc2c3c4c1Oc1cc5c(cc1O4)[C@H](Cc1ccc(O)c(c1)Oc1ccc(cc1)C[C@@H]3N(C)CC2)N(C)CC5 [COCSULINE]
IC50 [7]: 15.6 µg/mL (≈ 27.7 µM)

COc1c2cc3c(c1OC)CCN(C)[C@@H]3Cc1ccc(cc1)Oc1cc3c(c(OC)c1OC)CCN(C)[C@@H]3Cc1ccc(cc1)O2 [CYCLEANINE]
inhibition (INH) [9]: 36.2%

COc1cc2c(cc1OC)[C@@H](Cc1ccc(Oc3cc(C[C@@H]4c5cc(OC)c(OC)cc5CCN4C)ccc3O)cc1)N(C)CC2 [DAURICINE]
inhibition (INH) [9]: 50.8% | LD50 [14]: 205 mg/kg

COc1ccc2cc1Oc1ccc(cc1)C[C@H]1c3cc(c(OC)cc3CCN1C)Oc1c(OC)c(OC)cc3c1[C@H](C2)N(C)CC3 [FANCHININ]
Ki [10]: 7.3 ×10⁻⁸ M

COc1ccc2cc1Oc1ccc(cc1)C[C@H]1c3cc(c(OC)cc3CCN1C)Oc1c(O)c(OC)cc3c1[C@H](C2)N(C)CC3 [FANGCHINOLINE]
inhibition (INH) [9]: 82.4%

COc1ccc2cc1Oc1ccc(cc1)C[C@H]1c3c(cc(OC)c(O)c3Oc3cc4c(cc3OC)CCN(C)[C@@H]4C2)CCN1C [HOMOAROMOLINE]
inhibition (INH) [9]: 67%

COc1cc2c3cc1Oc1c(OC)c(OC)cc4c1C(=NCC4)Cc1ccc(cc1)Oc1cc(ccc1O)CC3N(C)CC2 (stereo unspecified) [HYPOEPISTEPHANINE]
inhibition (INH) [9]: 34.1%

COc1ccc(C[C@@H]2c3cc(Oc4cc(C[C@@H]5c6cc(O)c(OC)cc6CCN5C)ccc4O)c(OC)cc3CCN2C)cc1 [ISOLIENSININE]
inhibition (INH) [9]: 59.6%

COc1ccc(C[C@@H]2c3cc(Oc4cc(C[C@@H]5c6cc(OC)c(OC)cc6CCN5C)ccc4O)c(OC)cc3CCN2C)cc1 [NEFERINE]
inhibition (INH) [9]: 63.6%

COc1cc2c3cc1Oc1c(O)c(OC)cc4c1[C@@H](Cc1ccc(O)c(c1)Oc1ccc(cc1)C[C@@H]3N(C)CC2)N(C)CC4 [OBAMEGINE]
IC50 [7]: 0.51 µg/mL (≈ 0.858 µM)

COc1ccc2cc1Oc1ccc(cc1)C[C@@H]1c3cc(c(OC)cc3CCN1C)Oc1c(OC)c(OC)cc3c1[C@@H](C2)N(C)CC3 [PHAEANTHINE]
IC50 [7]: 1.43 µg/mL (≈ 2.3 µM)

COc1cc2c3cc1Oc1c(OC)c(OC)cc4c1[C@@H](Cc1ccc(O)c(c1)Oc1ccc(cc1)C[C@H]3N(C)CC2)N(C)CC4 [PYCNAMINE]
IC50 [7]: 0.15 µg/mL (≈ 0.246 µM)
